Where two headings read alike, the source gives them in different places.
Test system: Bezold-Jarisch reflux
Assay: Inhibition of Bezold-Jarisch reflux (2-methyl-5-hydroxytryptamine-induced bradycardia in anesthetized rats)
Type: in vivo
Conditions: test compound iv, 5-minutes interval, then 2-methyl-5-hydroxytryptamine 32 μg/kg iv, urethane-anesthetized male Sprague-Dawley rats, bradycardic response
Procedure: Inhibition of Bezold-Jarisch reflux
Male Sprague-Dawley rats weighing 260-350 g were anesthetized intraperitoneally with 1.25 g/kg urethane.
Blood pressure and heart rate were monitored continuously from the left common carotid artery with a pressure transducer. A right femoral vein was cannulated for the intravenous injection (iv) of drugs. The trachea was also cannulated to ease the respiration.
Rats were given a rapid bolus injection of 2-methyl-5-hydroxytryptamine (32 μg/kg, iv) to establish the control bradycardic response. Once the heart rate returned to base line, the rats were given the test compound (iv), followed by 5-minutes interval and another bolus injection of 2-methyl-5-hydroxytryptamine (32 μg/kg, iv).

Row | Compound | ED50 (Rattus norvegicus, 5 min, read-out: ED50) | ED50
1 | Cc1[nH]cnc1C(C)N1CCc2c(C)c3ccccc3n2C1=O.Cl (centres unmarked) [Compound 2, 3,4-Dihydro-5-methyl-2-[1-(5-methyl-1H-imidazol-4-yl)ethyl]pyrimido[1,6-a]indol-1(2H)-one hydrochloride] | 1.5 µg/kg | 
2 | 3,4-dihydro-5-methyl-2-[(5-methyl-1-trityl-1H-imidazol-4-yl)methyl]pyrimido[1,6-a]indol-1 (2H)-one [Example 1] |  | 0.56 µg/kg
